# Experimental data taken from patent publication US11559513B2, “PTGDR-1 and/or PTGDR-2 antagonists for preventing and/or treating systemic lupus erythematosus” (INSTITUT NATIONAL DE LA SANTE ET DE LA RECHERCHE MEDICALE …, priority 2015, dated 2023).
# B1: CCL3: chemokine known to have an effect on basophils (protein, UniProt P10147 24-92, looked up)
# C-C motif chemokine 3: SLAADTPTACCFSYTSRQIPQNFIADYFETSSQCSKPGVIFLTKRSRQVCADPSEEWVQKYVSDLELSA
# B2: CCL5: chemokine known to have an effect on basophils (protein, UniProt P13501 24-91, looked up)
# C-C motif chemokine 5: SPYSSDTTPCCFAYIARPLPRAHIKEYFYTSGKCSNPAVVFVTRKNRQVCANPEKKWVREYINSLEMS
# Columns and labels:
# [1] = test system: WT mouse spleen basophils (splenocytes); assay: CXCR4 expression on mouse spleen basophils ex vivo; format: cell-based; conditions: for CXCR4 expression on other WT splenocytes including T and B cells: data not shown; for CXCR4 expression on spleen WT basophils ex vivo: specific agonists, 24 hours ex vivo
# Text: (a) Ex vivo migration of basophils from whole WT or Lyn^−/− splenocytes to CXCL12. (b) CXCR4 expression levels on basophils from the indicated compartments in aged WT (n=16) and Lyn^−/− (n=14) animals. Data are normalized to the mean CXCR4 expression level of WT blood basophils. Statistical analyses placed directly above each bar compared the value for one given compartment to the blood compartment of the corresponding genotype. Statistical analyses between both genotypes for each compartment are also indicated. (c) Basophil number per peritoneum in young WT mice 24 hours after intraperitoneal (ip) injection of PBS or CXCL12 and compared to steady state (−) values (n=13/15/5, respectively). (d) CXCR4 expression levels on basophils from mesenteric lymph nodes (mLN) of young Lyn^−/− mice 24 hours after PBS or PGD2 ip injection normalized to PBS injected mice values' mean. (e) Basophil number in mLN of young Lyn^−/− mice 24 hours after ip injection of the indicated compound(s). (f) CXCR4 expression levels on spleen basophils from 15 weeks old WT mice incubated ex vivo for 24 hours with the indicated compound and normalized to the control values' mean. […] Basophils number and CXCR4 expression were assessed by flow cytometry. Statistical analyses were by unpaired t test with Welch's correction (a-e) and by paired Student t test (f).
# (a-b) Relative CXCR4 expression levels on basophils (defined as CD19^−TCRβ^−CD3^−CD49b+FcεRIα^+CD123^+)CD45^lo and T cells (defined as CD45^+CD3^+TCRβ^+ cells) in splenocytes incubated 4 hours without (−) or with the indicated concentration of N6,2′-O-dibutyryl-adenosine 3′:5′-cyclic monophosphate (db-cAMP) or 1 μM PGD2 as determined by flow cytometry. Statistical analyses were by paired Student t tests. NS: not significant, *: P<0.05, **: P<0.01, ***: P<0.001. (c) Relative CXCR4 expression levels on spleen basophils (defined as in (a)) incubated 4 hours without (0) or with the indicated concentration (nM) of the indicated compound(s). DK-PGD2: 13,14-dihydro-15-keto-PGD2 (PTGDR-2 specific agonist); BW245c: 3-(3-Cyclohexyl-3-hydroxypropyl)-2,5-dioxo-(R*,S*)-(±)-4-imidazolineheptanioc acid (PTGDR-1 specific agonist) as determined by flow cytometry. Statistical analysis was by two-ways ANOVA followed by a Tukey's multiple comparisons test. (a-c) Data are normalized to control value mean (per group, n=4 to 8). Data are expressed as mean+s.e.m. All experiments were realized with splenocytes from 8-12 weeks old WT mice.
# (§1) Human basophils and mouse splenocytes were cultured in culture medium (RPMI 1640 with Glutamax and 20 mM HEPES, 1 mM Na-pyruvate, non-essential amino acids 1× (all from Life Technologies, Saint-Aubin, France), 100 μg/ml streptomycin and 100 U/ml penicillin (GE Healthcare, Vélizy, France) and 37.5 μM β-mercaptoethanol (Sigma-Aldrich, MO)) supplemented with 20% heat-inactivated fetal calf serum at 37° C. and 5% CO2. 18 hours-long stimulation prior to migration assays were done in culture medium at 1×10^6 cells per mL by adding 1 nM of IL-3 (Peprotech), 1 μM of prostaglandin D2 (PGD2), 1 μM of the PTGDR-1 specific agonist BW245c, 1 μM of the PTGDR-2 specific agonist 13,14-dihydro-15-keto Prostaglandin D2 (DK-PGD2) (all from Cayman chemicals) or 5 ng/mL of anti-IgE (mouse anti-human IgE or rat anti-mouse IgE, both from Thermo Scientific). All cells were washed twice before any migration assay. Control conditions were always with the same vehicle concentration as stimulated conditions.
# CXCR4 = CXCR4 (Homo sapiens, UniProt P61073); conditions: cited from earlier work
# Lyn−/− mice = assay: PGD2-induced basophil in vivo migration assay; design: species or system mouse
# purified human basophils = assay: 18 hours stimulation of purified human basophils, marker expression and migration towards CXCL12; format: cell-based
# Text: Human basophils were purified to >95% by negative selection with the Human Basophils Enrichment kit (Stemcell Technologies, Grenoble, France) for culture, stimulation and chemotaxis experiments. In some chemotaxis experiments, human basophils were enriched to 3-5% by negative selection with the Human PE positive selection kit (Stemcell Technologies) by using a cocktail of PE-conjugated anti-CD3, CD19 and CD89 (BioLegend). These kits were used following manufacturer instructions.
# as §1
# Migration assays were performed in culture medium supplemented with 0.1% bovine serum albumin (BSA, Sigma-Aldrich) in Transwell 5 μm polycarbonate permeable support 6.5 mm inserts (Corning, N.Y., N.Y.) for 3 hours at 37° C. and 5% CO2 with 1×10^5 purified basophils or 2×10^5 enriched basophils at 1×10^6 cells per mL. Purified or enriched basophils from the upper and bottom chambers were counted at the end of the assay. Basophil content and phenotype was determined by flow cytometry by analyzing more than 100 basophils. Purification or enrichment of human basophils didn't show any difference in the measured migration for all tested chemokines. Migration was defined as the ratio between the number of basophils in the bottom chamber and the number of basophils in the upper plus the bottom chambers. Spontaneous migration was defined as the migration observed without any chemokine in the bottom chamber. Corrected migration was defined as the difference between specific and spontaneous migration. For migration assays the following concentrations (known to be optimal) were used for each compound: Human IL-3: 300 pM (Peprotech), human CCL3, CCL5, and CXCL12: 50 nM; CXCL2 (all from BioLegend) and PGD2 (Cayman chemicals): 100 nM. Migration to human CCL3, CCL5, CXCL2, and PGD2 was done in the presence of IL-3 at 300 pM in both chambers. Migration with IL-3 represents chemokinetism: IL-3 was added in both chambers to the same concentration and compared to the spontaneous migration observed without IL-3. Effects of 24 hours incubation with IL-3 or PGD2 (as described above) on basophil apoptosis were estimated by using the FITC Annexin V Apoptosis Detection Kit from BD Biosciences and used accordingly to manufacturer's instructions.
# 12 weeks old Lyn−/− mice = assay: Acceleration of lupus-like disease development by repeated PGD2 injections
# Text: (a,b) Proportion of basophils (CD19^−TCRβ^−CD49b^+FcεRIα^+CD123^+)CD45^lo) among singlets living CD45^+ cells in mesenteric (a) and other (cervical, brachial and inguinal) lymph nodes (b) from 10 to 12 weeks-old Lyn^−/− mice injected over ten days with PBS (open circles) or PGD2 alone (open squares), and PGD2 injected and basophil depleted (MAR-1) (open diamonds) or not (IgG) (open triangles) as described in the methods. (c) IA-IE expression levels on LN basophils from mice as in (b). […] (d,e) Proportion of short lived plasma cells CD19^+CD138^+ among singlets living CD45^+ cells in spleen (d) and lymph nodes (e) in the same mice as in (b). (f) Representative immunofluorescence staining for C3 and IgG deposits in kidneys from mice as indicated in (b) (scale bar=1 mm) and their corresponding quantifications in PBS (n=3), PGD2 (n=4), PGD2+control IgG (n=3) and PGD2+MAR-1 (n=3) injected mice. (g) Fold increase in urine albumin/creatinine ratio before and after PBS or PGD2 10 days-long treatment. (a-e) Basophil, plasma cell numbers and IA-IE expression levels were assessed by flow cytometry. (a-g) Data are expressed as means±s.e.m. […] One representative out of three independent experiments is shown.
# For acceleration of disease development by PGD2 injections, 12 weeks old Lyn^−/− mice were injected ip with 20 nmoles of PGD2 or vehicle in PBS, every two days for 10 days, for a total of 6 injections. Mice were analyzed the day following the last injection. […] Cell viability was assessed by the utilization of Ghost Dye Violet 510 (Tonbo, San Diego, Calif.).
# Quantification of C3 and IgG deposits was realized by using ImageJ software (v1.49p, NIH, USA). A minimum of 20 glomeruli was quantified per kidney. For assessment of kidney function the albumin/creatinine ratio (ACR) was determined. Urine was collected from each mouse before and after treatment. The albumin concentration was measured with a mouse albumin ELISA (Bethyl laboratories, Montgomery, Tex.). A creatinine assay (R&D systems, Minneapolis, Minn.) was used to determine urine creatinine concentrations. Results are expressed as a fold increase corresponding to the ratio of the ACR after/before treatment.
# WT mice = assay: CXCL12-induced basophil in vivo migration assay; design: species or system mouse; conditions: intraperitoneal injection, 24 hours
# [2] = ip every two days over ten days
# Chain of CXCR4 (P61073 whole entry, species assumed): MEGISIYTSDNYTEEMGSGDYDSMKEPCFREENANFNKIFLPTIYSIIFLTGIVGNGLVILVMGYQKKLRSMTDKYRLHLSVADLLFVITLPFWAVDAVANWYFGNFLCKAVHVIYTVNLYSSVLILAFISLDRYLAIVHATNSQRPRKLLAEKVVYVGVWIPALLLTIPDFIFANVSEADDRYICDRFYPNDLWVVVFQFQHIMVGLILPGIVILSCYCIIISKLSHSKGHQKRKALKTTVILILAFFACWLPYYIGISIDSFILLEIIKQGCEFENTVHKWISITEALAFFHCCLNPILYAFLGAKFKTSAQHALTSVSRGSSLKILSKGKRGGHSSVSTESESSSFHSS
molecule,measurement,setting,value
"O=C(O)CCCCCCC1C(=O)NC(=O)N1CCC(O)C1CCCCC1 (racemic) [BW245c, 3-(3-Cyclohexyl-3-hydroxypropyl)-2,5-dioxo-(R*,S*)-(±)-4-imidazolineheptanioc acid]",CXCR4 expression on other WT splenocytes including T and B cells,[1],significant but much lower increase
same,CXCR4 expression on spleen WT basophils ex vivo,[1],up-regulation
c1cc(CN2CCCNCCNCCCNCC2)ccc1CN1CCCNCCNCCCNCC1 [AMD3100],known effects of CXCR4 antagonism,CXCR4,induce a release of hematopoietic stem cells and interfere with homeostatic functions
same,PGD2-induced basophil recruitment in SLOs and peritoneum,"Lyn−/− mice; co-injection with PGD2, ip",completely abolished
"CCCCCC(=O)CCC1C(=O)CC(O)C1C/C=C\CCCC(=O)O (stereo not shown) [DK-PGD2, 13,14-dihydro-15-keto-PGD2]",CXCR4 expression on other WT splenocytes including T and B cells,[1],significant but much lower increase
same,CXCR4 expression on spleen WT basophils ex vivo,[1],up-regulation
"CCCCC[C@H](O)/C=C/[C@H]1C(=O)C[C@H](O)[C@@H]1C/C=C\CCCC(=O)O [PGD2, 9α,15S-dihydroxy-11-oxo-prosta-5Z,13E-dien-1-oic acid]",basophil apoptosis,"purified human basophils; 1 μM, data not shown",without inducing
same,CXCR4 expression on basophils,"purified human basophils; 18 hours priming, 1 μM PGD2 or sub-optimal anti-IgE",enhanced
same,PTGDR-2 internalization,"purified human basophils; 18 hours, 1 μM, data not shown",induced
same,FcεRIα expression on basophil surface,"purified human basophils; PGD2 priming, data not shown",slight increase
same,migration towards CXCL12,purified human basophils; after 18 hours priming,enhanced
same,CXCR4 expression on mLN basophils,"Lyn−/− mice; i.p. injection, 24 hours",increased
same,basophil accumulation in SLOs and peritoneum,"Lyn−/− mice; i.p. injection, 24 hours",drove their accumulation
same,peripheral basopenia compared to steady state,"Lyn−/− mice; ip injection, data not shown","significant, but transient"
same,CXCR4 externalization by T cells,"[1]; 1 μM, 4 hours ex vivo",unable
same,CXCR4 surface expression of other immune cell types,12 weeks old Lyn−/− mice; data not shown,didn't show any significant increase
same,albuminuria,"12 weeks old Lyn−/− mice; end of protocol, versus PBS-injected",increased albuminuria
same,CD19+CD138+ plasma cells in SLOs,12 weeks old Lyn−/− mice; [2],increased proportion
same,IA-IE expression on basophils,12 weeks old Lyn−/− mice; [2],increased
same,basophil accumulation in SLOs,12 weeks old Lyn−/− mice; [2],accumulated systemically
same,immune complexes in the kidney (C3 and IgG deposition),12 weeks old Lyn−/− mice; [2],increased deposition
same,basophil CXCR4 expression levels,"12 weeks old Lyn−/− mice; ip every two days over ten days, data not shown",increased
"CCCC(=O)Nc1ncnc2c1ncn2[C@@H]1O[C@@H]2COP(=O)(O)O[C@H]2[C@H]1OC(=O)CCC [db-cAMP, N6,2′-O-dibutyryl-adenosine 3′:5′-cyclic monophosphate]",CXCR4 externalization by mouse WT spleen basophils,[1]; 4 hours ex vivo,externalized
same,sensitivity of basophils versus T cells to the compound (CXCR4 externalization),[1]; 4 hours ex vivo,100 fold
CXCL2: chemokine known to have an effect on basophils,increased CXCR4 externalization ex vivo as PGD2 did,purified human basophils; data not shown,None
"CXCL12: C—X—C motif Ligand 12, chemokine; murine CXCL12 injected ip",in vivo basophil migration to the injection site and draining mesenteric lymph nodes,WT mice,induced
B1,increased CXCR4 externalization ex vivo as PGD2 did,purified human basophils; data not shown,None
B2,increased CXCR4 externalization ex vivo as PGD2 did,purified human basophils; data not shown,None
